Laboratory results: article PMC4745926, “Absorption, Metabolism, and Excretion by Freely Moving Rats of 3,4-DHPEA-EDA and Related Polyphenols from Olive Fruits (Olea europaea)” (Journal of Nutrition and Metabolism, 2016)
Values joined by “and” are separate entries in the source; they are usually repeats but may differ in a detail not shown here. Equal values may be shown once. “Also recorded” adds a separate entry of the source. Read-outs that look alike come from different tables or passages of the source. One block for each compound: values may come before it.

Test: Portal plasma pharmacokinetics after oral administration in portal vein cannulated, freely moving rats
Assay type: in vivo, Wistar ST rats
Settings: for AUC: 0→4 h after oral administration, mean ± SEM; for bioavailability: plasma, intact compound, oral versus intravenous administration, read-out: bioavailability for 4 hours
Experimental: SPF Wistar ST rats (6 weeks of age, male, 180 ± 20 g of body weight) were purchased from Japan SLC Inc. (Hamamatsu, Japan). The rats were housed in an air-conditioned room at 22 ± 2°C under cycles of 12 hours dark and 12 hours light and given free access to a commercial diet and water for a week. The rats were then fasted for over 16 hours before the experiments. The present study was approved by the Animal Care and Use Committee at Kagawa University, and the rat treatment conformed to the Rules of Animal Experiments at Kagawa University. After fasting, the rats were cannulated with a polyethylene tube (PE-50; 0.58 mm I.D., 0.965 mm O.D.) into the jugular vein, portal vein, or bile duct under anesthesia with isoflurane inhalation using a WP-SAA01 (LMS Co., Ltd., Tokyo, Japan). A small hole was made in the vein or duct using pointed scissors and cannulated with the polyethylene tube. After inserting the tube, it was fixed at the edge of the vein or duct. The jugular vein and portal vein cannulas penetrated under the skin and were then tied at the back of the rats, and the bile duct cannula was tied at the abdomen of the rats. Bile duct-cannulated rats were then restrained in a Bollman cage (Natsume Seisakusho Co., Ltd., Tokyo, Japan). Before further experiments, the rats were allowed to recover from anesthesia. 3,4-[…] (300 mg/kg body weight; 936.51 μmol/kg) dissolved in 50% polyethylene glycol aqueous solution was administered orally via a stomach tube to the portal vein cannulated rats. Blood samples (450 μL) were then collected using a heparinized syringe attached to the cannula before administration and 5, 15, 30, 60, 120, and 240 min after administration. Urine was also collected before administration and 0 to 2 h and 2 to 4 h after administration. For intravenous administration, 3,4-[…] (10 mg/kg; 31.22 μmol/kg) was injected into the jugular vein, and blood (450 μL) was collected using a heparinized syringe before administration and 5, 15, 30, 60, 120, and 240 min after administration via the jugular vein cannula. The blood (450 μL) collected was immediately cooled on ice and centrifuged at 15,000 rpm for 5 min at 4°C to obtain over 200 μL plasma. Urine was also collected before administration and 0 to 2 h and 2 to 4 h after administration. Bile was collected via the bile duct cannula before administration and 0 to 2 h and 2 to 4 h after intravenous administration. The collected plasma, urine, and bile were immediately stored in an ice box until further analyses. HT (oral administration: 100 mg/kg; 648.66 μmol/kg, intravenous administration: 10 mg/kg; 64.87 μmol/kg) and Ole (oral administration: 300 mg/kg; 555.02 μmol/kg, intravenous administration: 10 mg/kg; 18.50 μmol/kg) were investigated using the same method as described above. Metabolites were deconjugated by using β-glucuronidase (500 U) and sulfatase (50 U) in 50 μL 625 mM MOPS (pH 6.8), which was added to 200 μL of plasma, urine, or bile. The mixture was incubated for 45 min at 37°C and subjected to extraction using QuEChERS [33]. […] Shimadzu, Kyoto, Japan) equipped with a Shim-pack XR-ODS column (3.0 mm I.D. × 100 mm; Shimadzu, Kyoto, Japan) at 40°C with a mobile phase of 0.5% TFA-1% acetonitrile aqueous solution (A) and 0.5% TFA-75% acetonitrile aqueous solution (B). The elution conditions are described as follows: isocratic elution of 0% B was maintained for 4.0 min; linear gradient 0 to 4% B, 4.0-4.5 min; linear gradient 4.0-16.0% B, 4.5-16.0 min; linear gradient 16.0-100% B, 16.0-25.0 min; isocratic elution of 100% B, 25.0-26.0 min; and linear gradient 100 to 0% B, 26.0-26.1 min, with a flow rate of 0.5 mL/min. Injection volume was 50 μL. All eluted peaks were detected at 279 nm with a diode array detector (SPD-M20A; Shimadzu, Kyoto, Japan). The absorption of 3,4-[…], and Ole was evaluated by dose-normalized 4 h area under the curve (AUC0→4 h/Dose) and C max/Dose values (Table 2). […]

[1] = analyte HT in portal plasma after oral administration
[2] = analyte HVA in portal plasma after oral administration
[3] = analyte HVAOH in portal plasma after oral administration
[4] = analyte Ole in portal plasma after oral administration
[5] = male, Wistar ST, rat, 300 mg/kg, analyte Ole in portal plasma after oral administration
[6] = analyte HT in portal plasma after oral administration, listed as HT
[7] = male, Wistar ST, rat, portal vein plasma, 100 mg/kg, analyte HT in portal plasma after oral administration

AUC (Total of detected analytes in portal plasma): 34049.5 ± 5539.3 µM·min
C max/Dose [1]: 0.22 μM·kg/μmol
Cmax [1]: 179 ± 45.3 µM
T max [1]: 30 min
AUC (analyte HT in portal plasma, triplicate): 25935.0 ± 3103.1 µM·min
Cmax [2]: 21.5 ± 6.9 µM
T max [2]: 60 min
AUC (analyte HVA in portal plasma, triplicate): 4180.0 ± 1646.5 µM·min
Cmax [3]: 22.2 ± 2 µM
T max [3]: 30 min
AUC (analyte HVAOH in portal plasma, triplicate): 3934.5 ± 789.7 µM·min
total absorption rate, times less than that of HT (total AUC0→4 h-i.g./Dosei.g. including metabolites): 2.2 times
ratio of AUC/Dose of 3,4-DHPEA-EDA : HT : Ole (total including metabolites in portal plasma after oral administration, Ole = 1): 13.5
Structure (SMILES): CC=C(C=O)C(CC=O)CC(=O)OCCc1ccc(O)c(O)c1 (stereo not drawn) [3,4-DHPEA-EDA, 3,4-dihydroxyphenylethyl elenolate dialdehydic form]
AUC/Dose (AUC0→4 h-i.g./Dosei.g.) (Total of detected analytes in portal plasma after oral administration): 36.4 μM·min·kg/μmol and 36.4 ± 5.9 μM·min·kg/μmol
Detection of parent 3,4-DHPEA-EDA in portal plasma (after oral administration, 300 mg/kg, 936.51 μmol/kg, 300 mg/kg): not observed; also recorded: not detected; also recorded: could not detect
AUC/Dose (AUC0→4 h-i.g./Dosei.g.) [1]: 27.7 μM·min·kg/μmol and 27.7 ± 3.3 μM·min·kg/μmol
AUC/Dose (AUC0→4 h-i.g./Dosei.g.) [2]: 4.5 μM·min·kg/μmol and 4.5 ± 1.8 μM·min·kg/μmol
C max/Dose [2]: 0.03 μM·kg/μmol and 0.03 ± 0.007 μM·kg/μmol
AUC/Dose (AUC0→4 h-i.g./Dosei.g.) [3]: 4.2 μM·min·kg/μmol and 4.2 ± 0.8 μM·min·kg/μmol
C max/Dose [3]: 0.03 μM·kg/μmol and 0.03 ± 0.002 μM·kg/μmol

AUC/Dose (AUC0→4 h-i.g./Dosei.g.) [4]: 1.8 ± 0.4 μM·min·kg/μmol
C max/Dose [4]: 0.021 ± 0.006 μM·kg/μmol
AUC/Dose (AUC0→4 h-i.g./Dosei.g.) (analyte Ole in portal plasma after oral administration, listed as Ole): 1.8 μM·min·kg/μmol
Cmax [5]: 11.9 ± 3.2 µM
Tmax [5]: 5 min
AUC (male, Wistar ST, rat, 300 mg/kg, analyte Ole in portal plasma, triplicate, read-out: AUC (converted)): 1020 µM·min
bioavailability (male, Wistar ST, rat): 0.5%
Structure (SMILES): C/C=C1/[C@H](O[C@@H]2O[C@H](CO)[C@@H](O)[C@H](O)[C@H]2O)OC=C(C(=O)OC)[C@H]1CC(=O)OCCc1ccc(O)c(O)c1 [Oleuropein, reference compound]

AUC/Dose (AUC0→4 h-i.g./Dosei.g.) [1]: 51.1 ± 8.5 μM·min·kg/μmol
C max/Dose [1]: 0.61 ± 0.089 μM·kg/μmol
AUC/Dose (AUC0→4 h-i.g./Dosei.g.) [6]: 51.1 μM·min·kg/μmol
C max/Dose [6]: 0.61 μM·kg/μmol
AUC/Dose (AUC0→4 h-i.g./Dosei.g.) (analyte HT in portal plasma after oral administration, listed as hydroxytyrosol): 51.1 μM·min·kg/μmol
bioavailability (male, Wistar ST, rat): 13.1%
Cmax [7]: 395 ± 58 µM
Tmax [7]: 15 min
AUC (male, Wistar ST, rat, portal vein plasma, 100 mg/kg, analyte HT in portal plasma, triplicate, read-out: AUC (converted)): 33200 µM·min
Structure (SMILES): OCCc1ccc(O)c(O)c1 [Hydroxytyrosol, 2-(3,4-dihydroxyphenyl) ethyl alcohol, reference compound]
